In this assay the target is T1, Wrightia tinctoria 11S globulin (WTG) (Wrightia tinctoria, UniProt A0A162EGL7).
T1 construct: native purification from seeds; signal peptide (first 26 residues) removed; cleaved at Asn284-Gly285 into acidic and basic subunits joined by disulphide Cys120-Cys291; 18 C-terminal residues not seen; homohexamer
In words: X-ray crystal structure of complex ([…] Å); co-purified ligand identified by MALDI-MS and HRMS. The format is binding. The note with it: naturally bound ligand; three pockets at interface of four chains between two trimers; two alternate orientations, 0.5 occupancy; crystals at pH 8.5.

From article PMC5498579, “A novel function for globulin in sequestering plant hormone: Crystal structure of Wrightia tinctoria 11S globulin in complex with auxin” (Scientific Reports, 2017) come the findings set out here.

Structures are written as SMILES.

T1 sequence (A0A162EGL7 entry or part of it): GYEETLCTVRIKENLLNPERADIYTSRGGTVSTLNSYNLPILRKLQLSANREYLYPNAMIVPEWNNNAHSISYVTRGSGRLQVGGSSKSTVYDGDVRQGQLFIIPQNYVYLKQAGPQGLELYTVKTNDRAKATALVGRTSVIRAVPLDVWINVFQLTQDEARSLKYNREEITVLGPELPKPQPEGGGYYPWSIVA
T1 sequence (A0A162EGL7 entry or part of it): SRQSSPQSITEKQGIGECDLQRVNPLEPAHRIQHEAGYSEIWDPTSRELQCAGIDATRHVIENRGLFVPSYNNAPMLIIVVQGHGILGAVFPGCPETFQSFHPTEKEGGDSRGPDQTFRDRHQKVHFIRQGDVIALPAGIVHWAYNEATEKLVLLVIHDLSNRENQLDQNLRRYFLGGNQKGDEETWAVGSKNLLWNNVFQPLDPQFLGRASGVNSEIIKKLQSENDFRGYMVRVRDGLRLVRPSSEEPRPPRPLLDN

As to `O=C(O)Cc1c[nH]c2ccccc12` [Indole-3-acetic acid], the “X-ray crystal structure of complex (1.7 Å); co-purified ligand identified by MAL” value was “clearly revealed the presence of an IAA molecule in alternate orientation at the hydrophobic site”.
